What all share (experiment): Post-emergence efficacy, Method A
Holding throughout (assay type): in vivo

The subject of one assay is Lolium perenne (LOLPE). To be noted: Application rate 500 g/Ha, evaluated after 13 days, 100=total damage to plant, 0=no damage to plant; for pest or weed control at 500 g/ha: Lolium perenne, post-emergence, 312 h, read-out: Control of weed species after post-emergence application, LOLPE. The essentials: (§1)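 Plants raised 14 days from seed in standard soil in a glasshouse (24/16 °C day/night, 14 h light, 65% humidity) were sprayed with compound dissolved in acetone plus IF50 solvent/emulsifier (50 g/l solution), diluted with 0.25% or 1% Empicol ESC70 + 1% ammonium sulphate. Damage was scored visually after 13 days (0 = none, 100 = total).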

The next assay has as its system Setaria faberi (SETFA). To be noted: Application rate 500 g/Ha, evaluated after 13 days, 100=total damage to plant, 0=no damage to plant; for pest or weed control at 500 g/ha: Setaria faberi, post-emergence, 312 h, read-out: Control of weed species after post-emergence application, SETFA. The essentials:
as §1

Assay [1] deals with Euphorbia heterophylla (EPHHL). To be noted: Application rate 500 g/Ha, evaluated after 13 days, 100=total damage to plant, 0=no damage to plant; for pest or weed control at 500 g/ha: Euphorbia heterophylla, post-emergence, 312 h, read-out: Control of weed species after post-emergence application, EPHHL. The essentials: as §1
The test system of assay [2] is Amaranthus palmeri (AMAPA). To be noted: Application rate 500 g/Ha, evaluated after 13 days, 100=total damage to plant, 0=no damage to plant; for pest or weed control at 500 g/ha: Amaranthus palmeri, post-emergence, 312 h, read-out: Control of weed species after post-emergence application, AMAPA. The essentials:
as §1

A further assay concerns Eleusine indica (ELEIN). To be noted: Application rate 500 g/Ha, evaluated after 13 days, 100=total damage to plant, 0=no damage to plant; for pest or weed control at 500 g/ha: Eleusine indica, post-emergence, 312 h, read-out: Control of weed species after post-emergence application, ELEIN. Summed up: as §1
Assay [3] concerns Chenopodium album (CHEAL). To be noted: Application rate 500 g/Ha, evaluated after 13 days, 100=total damage to plant, 0=no damage to plant; for pest or weed control at 500 g/ha: Chenopodium album, post-emergence, 312 h, read-out: Control of weed species after post-emergence application, CHEAL. The essentials: as §1
The test system of assay [4] is Echinochloa crus-galli (ECHCG). To be noted: Application rate 500 g/Ha, evaluated after 13 days, 100=total damage to plant, 0=no damage to plant; for pest or weed control at 500 g/ha: Echinochloa crus-galli, post-emergence, 312 h, read-out: Control of weed species after post-emergence application, ECHCG. The essentials: as §1
Assay [5] concerns Ipomoea hederacea (IPOHE). To be noted: Application rate 500 g/Ha, evaluated after 13 days, 100=total damage to plant, 0=no damage to plant; for pest or weed control at 500 g/ha: Ipomoea hederacea, post-emergence, 312 h, read-out: Control of weed species after post-emergence application, IPOHE. The essentials: as §1
Assay [6] concerns Digitaria sanguinalis (DIGSA). To be noted: Application rate 500 g/Ha, evaluated after 13 days, 100=total damage to plant, 0=no damage to plant; for pest or weed control at 500 g/ha: Digitaria sanguinalis, post-emergence, 312 h, read-out: Control of weed species after post-emergence application, DIGSA. Summed up: as §1

For the compound `CC(C)OC(=O)CC[n+]1ccc(-c2ncccn2)cn1` [Compound A81, isopropyl 3-(4-pyrimidin-2-ylpyridazin-1-ium-1-yl)propanoate 2,2,2-trifluoroacetate], the pest or weed control at 500 g/ha with Lolium perenne (LOLPE) turned out to be 40%; in the assay on Setaria faberi (SETFA), 90%; in [1] it was 100%; in [2] it was 100%; in the assay with Eleusine indica (ELEIN) it was 80%; in assay [3], 90%. Moreover, the pest or weed control at 500 g/ha in assay [4] was 90%; in assay [5], 40%; in assay [6], 100%.
Take `CCOC(=O)CC[n+]1ccc(-c2ncccn2)cn1` [Compound A82]: the pest or weed control at 500 g/ha turned out to be 0% in the assay with Lolium perenne (LOLPE); 60% in the assay on Setaria faberi (SETFA); 40% in assay [1]; 70% in [2]; 60% in the assay with Eleusine indica (ELEIN); 80% in [3]. Further, the results for the pest or weed control at 500 g/ha in assay [4], in assay [5] and in [6] were 30%, 20% and 30%, respectively.
`Cc1cncc(-c2cc[n+](CCS(=O)(=O)[O-])nc2)n1` [Compound A83]: the pest or weed control at 500 g/ha with Lolium perenne (LOLPE) is 70%; with Setaria faberi (SETFA), 90%; in assay [1], 90%; in assay [2] it was 90%; with Eleusine indica (ELEIN), 100%; in [3], 80%. The pest or weed control at 500 g/ha in assay [4] is 50%; in assay [5], 40%; in assay [6], 100%.
In the case of `O=S(=O)([O-])CCC[n+]1ccc(-c2cncc(Cl)n2)cn1` [Compound A84], the pest or weed control at 500 g/ha was 30% in the assay on Lolium perenne (LOLPE); 50% in the assay on Setaria faberi (SETFA); 90% in assay [1]; 100% in [2]; 20% with Eleusine indica (ELEIN); 80% in [3]. Besides, the pest or weed control at 500 g/ha in assay [4] came out at 20%; in [5] it was 30%; in assay [6], 50%.
As for `Cc1cncc(-c2cc[n+](CCC(=O)O)nc2)n1` [Compound A85], the pest or weed control at 500 g/ha with Lolium perenne (LOLPE) came to 70%; in the assay on Setaria faberi (SETFA), 90%; in assay [1], 100%; in assay [2] it was 90%; with Eleusine indica (ELEIN) it was 90%; in assay [3], 90%. Besides, the pest or weed control at 500 g/ha in assay [4] amounted to 70%; in assay [5] it was 30%; in assay [6], 90%.
As to `O=C(O)CC[n+]1ccc(-c2ccnc(O)n2)cn1` [Compound A86], the pest or weed control at 500 g/ha with Lolium perenne (LOLPE) was 10%; with Setaria faberi (SETFA) it was 40%; in [1], 50%; in assay [2] it was 30%; with Eleusine indica (ELEIN), 10%; in assay [3], 40%. The pest or weed control at 500 g/ha worked out at 20% in assay [4], 40% in assay [5] and 30% in assay [6].
For `Cc1c[n+](CCS(=O)(=O)[O-])ncc1-c1ncccn1` [Compound A87], the pest or weed control at 500 g/ha was 70% in the assay on Lolium perenne (LOLPE); 70% with Setaria faberi (SETFA); 50% in assay [1]; 50% in assay [2]; 60% with Eleusine indica (ELEIN); 30% in [3]. Besides, the pest or weed control at 500 g/ha came out at 70% in [4], 40% in assay [5] and 70% in assay [6].
For the compound `Cc1n[n+](CCS(=O)(=O)[O-])ccc1-c1ncccn1` [Compound A88, 2-(3-methyl-4-pyrimidin-2-yl-pyridazin-1-ium-1-yl)ethanesulfonate], the pest or weed control at 500 g/ha with Lolium perenne (LOLPE) was found to be 60%; with Setaria faberi (SETFA) it was 70%; in assay [1], 60%; in assay [2] it was 100%; in the assay with Eleusine indica (ELEIN), 90%; in assay [3], 70%. For the same compound, the figures for the pest or weed control at 500 g/ha in assay [4], in assay [5] and in assay [6] were 60%, 30% and 90%, respectively.
With `CS(=O)(=O)NC(=O)CC[n+]1ccc(-c2ncccn2)cn1` [Compound A89], the pest or weed control at 500 g/ha in the assay with Lolium perenne (LOLPE) worked out at 40%; in the assay on Setaria faberi (SETFA), 70%; in assay [1] it was 100%; in assay [2] it was 100%; with Eleusine indica (ELEIN), 40%; in assay [3], 40%. Also, the pest or weed control at 500 g/ha in [4] worked out at 60%; in assay [5], 70%; in assay [6], 50%.
For `COc1cncc(-c2cc[n+](CCCS(=O)(=O)[O-])nc2)n1` [Compound A90], the pest or weed control at 500 g/ha amounted to 20% in the assay on Lolium perenne (LOLPE); 30% with Setaria faberi (SETFA); 60% in assay [1]; 40% in assay [2]; 20% in the assay on Eleusine indica (ELEIN); 20% in assay [3]. Also, the pest or weed control at 500 g/ha worked out at 20% in [4], 30% in assay [5] and 30% in assay [6].
On to `CCOC(=O)CC[n+]1ccc(-c2ccccn2)cn1` [Compound A91], for which the pest or weed control at 500 g/ha in the assay on Lolium perenne (LOLPE) worked out at 20%; in the assay with Setaria faberi (SETFA) it was 60%; in [1] it was 40%; in assay [2], 40%; in the assay with Eleusine indica (ELEIN) it was 60%; in assay [3], 20%. The pest or weed control at 500 g/ha in [4] is 60%; in assay [5] it was 20%; in [6], 50%.
On to `CN(C)C(=O)c1cnc(-c2cc[n+](CCC(=O)[O-])nc2)nc1` [Compound A92], for which the pest or weed control at 500 g/ha in the assay with Lolium perenne (LOLPE) came out at 50%; with Setaria faberi (SETFA), 90%; in assay [1] it was 70%; in assay [2], 90%; with Eleusine indica (ELEIN), 90%; in [3], 90%. For the same compound, the pest or weed control at 500 g/ha in assay [4] was 80%; in assay [5] it was 100%; in assay [6], 60%.
Turning to `CNC(=O)c1cnc(-c2cc[n+](CCC(=O)[O-])nc2)nc1` [Compound A93], the pest or weed control at 500 g/ha in the assay on Lolium perenne (LOLPE) was 80%; in the assay on Setaria faberi (SETFA), 100%; in [1] it was 40%; in [2] it was 90%; in the assay with Eleusine indica (ELEIN) it was 100%; in [3], 80%. Besides, the figures for the pest or weed control at 500 g/ha in assay [4], in assay [5] and in assay [6] were 80%, 20% and 100%, respectively.
With `COc1cc(C)nc(-c2cc[n+](CCS(=O)(=O)O)nc2)n1` [Compound A94], in the assay on Lolium perenne (LOLPE), the “Control of weed species after post-emergence application, LOLPE” value turned out to be 20. The “Control of weed species after post-emergence application, SETFA” value in the assay on Setaria faberi (SETFA) was 40. In assay [1], the “Control of weed species after post-emergence application, EPHHL” value was 40. Besides, the “Control of weed species after post-emergence application, AMAPA” value in [2] was 70. Also, the “Control of weed species after post-emergence application, ELEIN” value in the assay on Eleusine indica (ELEIN) came out at 20. The “Control of weed species after post-emergence application, CHEAL” value in assay [3] is given as 90. For the same compound, the “Control of weed species after post-emergence application, ECHCG” value in assay [4] is 30. The “Control of weed species after post-emergence application, IPOHE” value in assay [5] is recorded as 30. Also, the “Control of weed species after post-emergence application, DIGSA” value in assay [6] came out at 30.

The values above are taken from patent US20220125051A1, “PRE-HARVEST DESICCATION METHOD” (SYNGENTA CROP PROTECTION AG, priority 2019, published 2022).
